Like-named read-outs stand apart in the source and are kept apart here.

The experiment has as its target human APJ receptor (Homo sapiens (Human), UniProt P35414). The experiment can be described thus: Intracellular cAMP accumulation assay (APJ hcAMP, HTRF). Type of experiment: cell-based. The note with it: HEK293 cells stably expressing human APJ receptor, inhibition of forskolin-mediated cAMP production. The procedure, abridged: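 cAMP inhibition was quantified by HTRF against a cAMP standard curve, with EC50 fitted to a variable-slope sigmoidal curve. Compounds acted on 5,000 APJ-stable HEK293 cells for 30 minutes at room temperature alongside 2 μM forskolin and […] IBMX. Detection reagents were incubated 60 min.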

[1] abbreviates: read-out: hAPJ cAMP EC50 Potency range.
[2] abbreviates: read-out: Human APJ cAMP EC50 Potency range.
Setting [3] is: read-out: hAPJ cAMP EC50 (nM) Potency range.

Sequence of human APJ receptor (P35414 whole entry): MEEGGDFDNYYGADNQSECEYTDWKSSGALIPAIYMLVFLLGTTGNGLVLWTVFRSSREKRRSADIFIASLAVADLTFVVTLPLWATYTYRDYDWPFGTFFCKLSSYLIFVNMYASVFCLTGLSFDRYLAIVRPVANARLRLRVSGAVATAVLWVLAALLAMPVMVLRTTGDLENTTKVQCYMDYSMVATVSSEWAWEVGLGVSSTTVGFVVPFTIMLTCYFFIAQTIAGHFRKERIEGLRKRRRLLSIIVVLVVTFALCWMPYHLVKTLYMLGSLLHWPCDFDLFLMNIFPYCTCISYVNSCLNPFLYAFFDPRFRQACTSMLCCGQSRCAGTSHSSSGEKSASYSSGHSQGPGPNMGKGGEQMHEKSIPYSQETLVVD

Take `CCCCc1nc(O)c(-c2nnc(Cc3nnc(-c4cccc(Cl)c4)o3)o2)c(O)c1-c1c(OC)cccc1OC` [Example 210, 6-butyl-3-(5-{[5-(3-chlorophenyl)-1,3,4-oxadiazol-2-yl]methyl}-1,3,4-oxadiazol-2-yl)-5-(2,6-dimethoxyphenyl) pyridine-2,4-diol]: the EC50 under setting [1] is 10 to 100 nM. On the same count and under the same terms, under `CCCCc1nc(O)c(-c2nnc(Cc3nnc(-c4cccnc4)o3)o2)c(O)c1-c1c(OC)cccc1OC` [Example 211, 6-butyl-5-(2,6-dimethoxyphenyl)-3-(5-{[5-(pyridin-3-yl)-1,3,4-oxadiazol-2-yl]methyl}-1,3,4-oxadiazol-2-yl)pyridine-2,4-diol] stands 10 to 100 nM. As to `CCOCc1nc(O)c(-c2nnc(Cn3ccccc3=O)o2)c(O)c1-c1c(OC)cc(F)cc1OC` [Example 212, 1-({5-[6-(ethoxymethyl)-5-(4-fluoro-2,6-dimethoxyphenyl)-2,4-dihydroxypyridin-3-yl]-1,3,4-oxadiazol-2-yl}methyl)-1,2-dihydropyridin-2-one], the EC50 under setting [2] was 10 to 100 nM.

`CCOCc1nc(O)c(-c2nnc(Cc3noc4ccccc34)o2)c(O)c1-c1c(OC)cc(F)cc1OC` [Example 213, 3-[5-(1,2-benzoxazol-3-ylmethyl)-1,3,4-oxadiazol-2-yl]-6-(ethoxymethyl)-5-(4-fluoro-2,6-dimethoxyphenyl) pyridine-2,4-diol]: under setting [1], the EC50 fell in the range of 0.01 to 10 nM. Same read-out and setting: for `CCOCc1nc(O)c(-c2nnc(Cc3ccc(Cl)cc3)o2)c(O)c1-c1c(OC)cc(F)cc1OC` [Example 214, 3-{5-[(4-chlorophenyl)methyl]-1,3,4-oxadiazol-2-yl}-6-(ethoxymethyl)-5-(4-fluoro-2,6-dimethoxyphenyl) pyridine-2,4-diol] the value was 0.01 to 10 nM; for `CCOCc1nc(O)c(-c2nnc(CN3CCCC3=O)o2)c(O)c1-c1c(OC)cc(F)cc1OC` [Example 215, 1-({5-[6-(ethoxymethyl)-5-(4-fluoro-2,6-dimethoxyphenyl)-2,4-dihydroxypyridin-3-yl]-1,3,4-oxadiazol-2-yl}methyl) pyrrolidin-2-one], 10 to 100 nM. On to `CCOCc1nc(O)c(-c2nnc(Cc3ccc(Cl)nc3)o2)c(O)c1-c1c(OC)cc(F)cc1OC` [Example 216, 3-{5-[(6-chloropyridin-3-yl)methyl]-1,3,4-oxadiazol-2-yl}-6-(ethoxymethyl)-5-(4-fluoro-2,6-dimethoxyphenyl) pyridine-2,4-diol], for which, under setting [1], the EC50 fell in the range of 0.01 to 10 nM. `CCOCc1nc(O)c(-c2nnc(Cc3ccc(Cl)cc3)o2)c(O)c1-c1c(OC)cncc1OC` [Example 217, 3-{5-[(4-chlorophenyl)methyl]-1,3,4-oxadiazol-2-yl}-5-(3,5-dimethoxypyridin-4-yl)-6-(ethoxymethyl)pyridine-2,4-diol]: the EC50 under setting [2] lay in the range of 10 to 100 nM. Still for that read-out and setting: under `CCCCc1nc(O)c(-c2nnc(Cc3noc4ccccc34)o2)c(O)c1-c1c(C)cccc1C` [Example 224, 3-[5-(1,2-benzoxazol-3-ylmethyl)-1,3,4-oxadiazol-2-yl]-6-butyl-5-(2,6-dimethylphenyl)pyridine-2,4-diol] stands 0.01 to 10 nM.

Turning to `CCCCc1nc(O)c(-c2nnc(Cc3noc4ccccc34)o2)c(O)c1-c1c(C)cc(C)cc1C` [Example 225, 3-[5-(1,2-benzoxazol-3-ylmethyl)-1,3,4-oxadiazol-2-yl]-6-butyl-5-(2,4,6-trimethylphenyl) pyridine-2,4-diol], the EC50 under setting [1] lay within 10 to 100 nM. As to `CCCCc1nc(O)c(-c2nnc(Cc3noc4ccccc34)o2)c(O)c1-c1c(CC)cccc1CC` [Example 226, 3-[5-(1,2-benzoxazol-3-ylmethyl)-1,3,4-oxadiazol-2-yl]-6-butyl-5-(2,6-diethylphenyl) pyridine-2,4-diol], the EC50 under setting [1] lay within 0.01 to 10 nM. In the case of `CCCCc1nc(O)c(-c2nnc(Cc3noc4cccnc34)o2)c(O)c1-c1c(OC)cccc1OC` [Example 227, 6-butyl-5-(2,6-dimethoxyphenyl)-3-(5-{[1,2]oxazolo[4,5-b]pyridin-3-ylmethyl}-1,3,4-oxadiazol-2-yl)pyridine-2,4-diol], under setting [2], the EC50 was 0.01 to 10 nM. In the case of `CCOCc1nc(O)c(-c2nnc(Cc3noc4cccnc34)o2)c(O)c1-c1c(OC)cccc1OC` [Example 228, 5-(2,6-dimethoxyphenyl)-6-(ethoxymethyl)-3-(5-{[1,2]oxazolo[4,5-b]pyridin-3-ylmethyl}-1,3,4-oxadiazol-2-yl)pyridine-2,4-diol], under setting [1], the EC50 fell in the range of 0.01 to 10 nM. For `CCOCc1nc(O)c(-c2nnc(Cc3ccc(Cl)cc3)o2)c(O)c1-c1c(O)cccc1O` [Example 229, 3-{5-[(4-chlorophenyl)methyl]-1,3,4-oxadiazol-2-yl}-5-(2,6-dihydroxyphenyl)-6-(ethoxymethyl)pyridine-2,4-diol], the EC50 under setting [2] is 10 to 100 nM. As for `CCNCc1[nH]c(=O)c(-c2nnc(Cc3ccc(Cl)cn3)o2)c(O)c1-c1c(OC)cccc1OC` [Example 230, 3-{5-[(5-chloropyridin-2-yl)methyl]-1,3,4-oxadiazol-2-yl}-5-(2,6-dimethoxyphenyl)-6-[(ethylamino)methyl]pyridine-2,4-diol], the EC50 under setting [2] lay in the range of 0.01 to 10 nM. For the compound `CCOCc1nc(O)c(-c2nnc(Cc3noc4ccccc34)s2)c(O)c1-c1c(OC)cccc1OC` [Example 231, 3-{5-[(1,2-benzoxazol-3-yl)methyl]-1,3,4-thiadiazol-2-yl}-5-(2,6-dimethoxyphenyl)-6-(ethoxymethyl)pyridine-2,4-diol], under setting [2], the EC50 lay within 10 to 100 nM. Turning to `CCOCc1nc(O)c(-c2nnc(Cc3ccc(Cl)cn3)s2)c(O)c1-c1c(OC)cccc1OC` [Example 232, 3-{5-[(5-chloropyridin-2-yl)methyl]-1,3,4-thiadiazol-2-yl}-5-(2,6-dimethoxyphenyl)-6-(ethoxymethyl) pyridine-2,4-diol], the EC50 under setting [3] lay in the range of 0.01 to 10 nM. Same read-out and setting: for `COc1cccc(OC)c1-c1c(C2CCCC2)nc(O)c(-c2nnc(Cc3ccc(Cl)cn3)s2)c1O` [Example 233, 3-{5-[(5-chloropyridin-2-yl)methyl]-1,3,4-thiadiazol-2-yl}-6-cyclopentyl-5-(2,6-dimethoxyphenyl) pyridine-2,4-diol] the value was 10 to 100 nM; for `CCOCc1nc(O)c(-c2nnc(Cc3ccc(Cl)cc3)s2)c(O)c1-c1c(OC)cccc1OC` [Example 234, 3-{5-[(4-chlorophenyl)-methyl]-1,3,4-thiadiazol-2-yl}-5-(2,6-dimethoxyphenyl)-6-(ethoxymethyl)-pyridine-2,4-diol], 10 to 100 nM; for `CCOCc1nc(O)c(-c2nnc(CNC(=O)c3ccccn3)s2)c(O)c1-c1c(OC)cccc1OC` [Example 235, N-({5-[5-(2,6-dimethoxyphenyl)-6-(ethoxymethyl)-2,4-dihydroxypyridin-3-yl]-1,3,4-thiadiazol-2-yl}methyl) pyridine-2-carboxamide], 10 to 100 nM.

For `CCCCc1nc(O)c(-c2nnc(Cc3ncc(Cl)cc3F)o2)c(O)c1-c1c(OC)cccc1OC` [Example 236, 6-butyl-3-{5-[(5-chloro-3-fluoropyridin-2-yl)methyl]-1,3,4-oxadiazol-2-yl}-5-(2,6-dimethoxyphenyl) pyridine-2,4-diol], where the note is “hAPJ cAMP EC50 (nM) Potency range”, the EC50 is 10 to 100 nM. With `CCOCc1nc(O)c(-c2nnc(Cc3ncc(Cl)cc3F)o2)c(O)c1-c1c(OC)cccc1OC` [Example 237, 3-{5-[(5-chloro-3-fluoropyridin-2-yl)methyl]-1,3,4-oxadiazol-2-yl}-5-(2,6-dimethoxyphenyl)-6-(ethoxymethyl) pyridine-2,4-diol], the EC50 under setting [3] lay within 0.01 to 10 nM.

Values taken from patent US10336739B2, “4-hydroxy-3-(heteroaryl)pyridine-2-one APJ agonists” (BRISTOL-MYERS SQUIBB COMPANY, priority 2015, dated 2019).
